Reference: paper PMC12580772, “A First-in-Human Study of ATM Inhibitor Lartesertib as Monotherapy in Patients with Advanced Solid Tumors” (Clinical Cancer Research, 2025)

Experiments:
[1] = tested on: advanced solid tumors; test: Efficacy: tumor response and PFS by RECIST version 1.1; assay type: in vivo, human
From the text: The primary endpoints were the occurrence of DLTs, adverse events (AE), and treatment-related and treatment-emergent AEs (TEAE), along with the occurrence of clinically significant changes in vital signs, laboratory parameters, and 12-lead electrocardiogram findings. The secondary endpoints included PK parameters of lartesertib in plasma after single and multiple doses; establishment of the recommended dose for expansion based on safety, PK, and PD data; absolute and relative changes overtime from baseline in ATM pathway readouts assessed by flow cytometry and immunohistochemistry; and objective response, duration of response, and progression-free survival (PFS) according to the RECIST version 1.1, as assessed by the investigator. Exploratory endpoints included the correlation of baseline and on-treatment biomarkers with response to lartesertib treatment as well as relative changes in total blood cell count, immune cells, and circulatory factors during exposure to lartesertib.
For the efficacy analysis, the proportion of patients with objective response, defined as radiologic complete response (CR) + partial response, was tabulated, and the 95% confidence interval (CI) was estimated using the Clopper–Pearson method. PFS was estimated using the Kaplan–Meier method. The median PFS time and rate estimates at 3, 6, and 12 months, as well as every 6 months thereafter, were also summarized.

[2] = tested on: MiaPaCa2 pancreatic cancer model; set-up: method as in PMID 37079339; conditions: combination with the ATR inhibitor gartisertib; cited from earlier work
[3] = tested on: cancer cell lines (head and neck, colon, lung, gastric, breast, and melanoma); set-up: method as in PMID 35405736; conditions: in vitro; cited from earlier work
[4] = tested on: patients with advanced solid tumors; set-up: method as in PMID 38407317; conditions: combination of lartesertib and tuvusertib; cited from earlier work
[5] = tested on: ctDNA somatic variant allele frequency; test: Plasma ctDNA next-generation sequencing (Guardant Health OMNI panel), molecular response; assay type: in vivo, human; conditions: 21 evaluable patients
Protocol: Circulating immune factors (e.g., IFN-β, IFN-γ, IL-1β, IL-2, IL-4, IL-6, IL-8, IL-10, IL-12p70, IL-13, TNF-α, and NKG2DL) were assessed using immunofluorescence assays. Additionally, blood samples were tested for plasma ctDNA by next-generation sequencing at Guardant Health using the OMNI panel. This analysis was conducted to evaluate surrogate markers of tumor dynamics, sensitivity, and resistance to treatment. Molecular response (MR) was assessed and defined as strongest change of—per visit averaged—somatic variant allele frequency (VAF) against the pretreatment level as follows: Best delta mean VAF = MIN (meanVAFvisiti – meanVAFpretreatment / meanVAFpretreatment)

[6] = tested on: human squamous cell carcinoma of the head and neck FaDu xenograft; set-up: method as in PMID 35405736; conditions: in combination with radiation; cited from earlier work

In the case of `COc1cc2ncc3c(c2cc1-c1cn(C)nc1C)n(-c1c(F)cncc1OC)c(=O)n3C` [lartesertib], the “Best overall response: Non-complete response/non-progressive disease” value ([1]; 100 mg n = 2) is reported as 1 (50.0) n (%), the “Best overall response: Not evaluable” value ([1]; 100 mg n = 2) is reported as 1 (50.0) n (%) and the “Best overall response: Progressive disease” value ([1]; 100 mg n = 2) is reported as 0 (0.0) n (%). The “Best overall response: Stable disease” value ([1]; 100 mg n = 2) was 0 (0.0) n (%), the “Progressive disease/Deaths (PFS events)” value ([1]; 100 mg n = 2) was 0 (0.0) n (%) and the “PFS, median (min, max)” value ([1]; 100 mg n = 2, NC, noncalculable) was “NC (1.2,4.0)”. For the same compound, the “Best overall response: Non-complete response/non-progressive disease” value ([1]; 200 mg n = 7) was 0 (0.0) n (%), the “Best overall response: Not evaluable” value ([1]; 200 mg n = 7) was 2 (28.6) n (%) and the “Best overall response: Progressive disease” value ([1]; 200 mg n = 7) was 5 (71.4) n (%). The “Best overall response: Stable disease” value ([1]; 200 mg n = 7) was 0 (0.0) n (%), the “PFS, median (min, max)” value ([1]; 200 mg n = 7) was 1.1 (0.0, 1.6) months and the “Progressive disease/Deaths (PFS events)” value ([1]; 200 mg n = 7) was 6 (85.7) n (%). For the same compound, the “Best overall response: Non-complete response/non-progressive disease” value ([1]; 300 mg n = 9) was 0 (0.0) n (%), the “Best overall response: Not evaluable” value ([1]; 300 mg n = 9) was 2 (22.2) n (%) and the “Best overall response: Progressive disease” value ([1]; 300 mg n = 9) was 6 (66.7) n (%). For the same compound, the “Best overall response: Stable disease” value ([1]; 300 mg n = 9) was 1 (11.1) n (%), the “PFS, median (min, max)” value ([1]; 300 mg n = 9) was 1.3 (0.0, 4.1) months and the “Progressive disease/Deaths (PFS events)” value ([1]; 300 mg n = 9) was 7 (77.8) n (%). The “Best overall response: Non-complete response/non-progressive disease” value ([1]; 400 mg n = 4) was 0 (0.0) n (%), the “Best overall response: Not evaluable” value ([1]; 400 mg n = 4) was 2 (50.0) n (%) and the “Best overall response: Progressive disease” value ([1]; 400 mg n = 4) was 1 (25.0) n (%). For the same compound, the “Progressive disease/Deaths (PFS events)” value ([1]; 400 mg n = 4) was 1 (25.0) n (%), the “PFS, median (min, max)” value ([1]; 400 mg n = 4, NC, noncalculable) was “NC (0.0, 2.8)” and the “Best overall response: Non-complete response/non-progressive disease” value ([1]; Total N = 22) was 1 (4.5) n (%). The “Best overall response: Not evaluable” value ([1]; Total N = 22) was 7 (31.8) n (%), the “Best overall response: Progressive disease” value ([1]; Total N = 22) was 12 (54.5) n (%) and the “Best overall response: Stable disease” value ([1]; Total N = 22) was 2 (9.1) n (%). For the same compound, the “PFS, median (min, max)” value ([1]; Total N = 22) was 1.3 (0.0, 4.1) months, the “Progressive disease/Deaths (PFS events)” value ([1]; Total N = 22) was 14 (63.6) n (%) and the “Median PFS” value ([1]; all patients, Kaplan–Meier) was 1.3 (95% CI, 0.99–1.58) months. For the same compound, the “Best overall response stable disease” value ([1]; of 22 patients) was 9.1%, the Progressive disease ([1]; of 22 patients) was 54.5% and the “Non-CR/non–progressive disease” value ([1]; of 22 patients, prostate gland cancer) was 4.5%. The “Duration of stable disease” value ([1]; patient with nasopharyngeal cancer) was 120 days, the Tumor growth [2] was “complete tumor growth inhibition” and the “Radiotherapy sensitivity of cancer cell lines” value [3] was “enhances the radiotherapy sensitivity”. For the same compound, the “Patients experiencing SD for >16 weeks” value [4] was “six of 42”, the “Patients with molecular response (ctDNA VAF decrease of ≥50% from baseline)” value [5] was “four patients of 21 evaluable patients” and the Antitumor response [6] was “significant dose-dependent antitumor responses”.
